Consider three compounds from publication PMC9986241 (Signal Transduction and Targeted Therapy, 2023).

Structures are written as SMILES. Where “and” joins values, the source holds several entries; their conditions need not be identical. Equal values may be shown once.

The target of one data set is T1, AMPKα1(h) (Homo sapiens, UniProt Q13131).
T1 construct: purchased Eurofins KinaseProfiler
The experiment in a line: KinaseProfiler enzyme profiling. Format: biochemical. How it is done:
(§1) Enzyme profiling services were provided by KinaseProfiler™ (Eurofin, Brussels, Belgium). The concentration of erianin was 100 nM, and total 70 kinases were tested in this in vitro screening and profiling services (2 repetitions). For more details, refer to the manufacturer’s instructions (www.eurofinsdiscoveryservices.com).

A further data set concerns the target T2, ATM(h) (Homo sapiens, UniProt Q13315).
T2 construct: purchased Eurofins KinaseProfiler
The experiment in a line: KinaseProfiler enzyme profiling. Format: biochemical. How it is done: as §1

A further data set has as its target T3, CDK1/cyclinB(h) (Homo sapiens, UniProt P06493).
T3 construct: purchased Eurofins KinaseProfiler
The data set is described as follows: KinaseProfiler enzyme profiling. Format: biochemical. As to the method: as §1

Another data set has as its target T4, CDK4/cyclinD3(h) (Homo sapiens, UniProt P11802).
T4 construct: purchased Eurofins KinaseProfiler
The data set is described as follows: KinaseProfiler enzyme profiling. Format: biochemical. As to the method: as §1

The target of a further data set is T5, IKKβ(h) (Homo sapiens, UniProt O14920).
T5 construct: purchased Eurofins KinaseProfiler
The experiment in a line: KinaseProfiler enzyme profiling. Format: biochemical. How it is done:
as §1

A further data set addresses T6, JAK3(h) (Homo sapiens, UniProt P52333).
T6 construct: purchased Eurofins KinaseProfiler
The experiment in a line: KinaseProfiler enzyme profiling. Format: biochemical. As to the method: as §1

For the next data set, the target named is T7, JNK2α2(h) (Homo sapiens, UniProt P45984).
T7 construct: purchased Eurofins KinaseProfiler
The experiment in a line: KinaseProfiler enzyme profiling. It counts as biochemical. How it is done: as §1

The next data set deals with T8, MSK1(h) (Homo sapiens, UniProt O75582).
T8 construct: purchased Eurofins KinaseProfiler
The experiment in a line: KinaseProfiler enzyme profiling. Format: biochemical. How it is done:
as §1

Another data set has as its target T9, MSK2(h) (Homo sapiens, UniProt O75676).
T9 construct: purchased Eurofins KinaseProfiler
The experiment in a line: KinaseProfiler enzyme profiling. It counts as biochemical. How it is done:
as §1

For the next data set, the target named is T10, MST3(h) (Homo sapiens, UniProt Q9Y6E0).
T10 construct: purchased Eurofins KinaseProfiler
The experiment in a line: KinaseProfiler enzyme profiling. Format: biochemical. As to the method:
as §1

Another data set addresses T11, NEK2(h) (Homo sapiens, UniProt P51955).
T11 construct: purchased Eurofins KinaseProfiler
The experiment in a line: KinaseProfiler enzyme profiling. Format: biochemical. As to the method: as §1

The next data set addresses T12, PAK3(h) (Homo sapiens, UniProt O75914).
T12 construct: purchased Eurofins KinaseProfiler
The data set is described as follows: KinaseProfiler enzyme profiling. Format: biochemical. As to the method: as §1

For another data set, the target named is T13, PDGFRα(h) (Homo sapiens, UniProt P16234).
T13 construct: purchased Eurofins KinaseProfiler
The data set is described as follows: KinaseProfiler enzyme profiling. Format: biochemical. How it is done:
as §1

A further data set has as its target T14, PDK1(h) (Homo sapiens, UniProt O15530).
T14 construct: purchased Eurofins KinaseProfiler
The experiment in a line: KinaseProfiler enzyme profiling. It counts as biochemical. As to the method:
as §1

The target in a further data set is T15, PKA(h) (Homo sapiens, UniProt P17612).
T15 construct: purchased Eurofins KinaseProfiler
The experiment in a line: KinaseProfiler enzyme profiling. Format: biochemical. As to the method: as §1

For a further data set, the target named is T16, PKBβ(h) (Homo sapiens, UniProt P31751).
T16 construct: purchased Eurofins KinaseProfiler
The experiment in a line: KinaseProfiler enzyme profiling. Format: biochemical. As to the method:
as §1

A further data set concerns the target T17, PKCα(h) (Homo sapiens, UniProt P17252).
T17 construct: purchased Eurofins KinaseProfiler
The experiment in a line: KinaseProfiler enzyme profiling. It counts as biochemical. As to the method: as §1

The next data set addresses T18, mTOR(h) (Homo sapiens, UniProt P42345).
T18 construct: purchased Eurofins KinaseProfiler
The experiment in a line: KinaseProfiler enzyme profiling. Format: biochemical. How it is done:
as §1

In a further data set the target is T19, B-Raf(V599E)(h) (Homo sapiens, UniProt P15056, V600E).
T19 construct: purchased Eurofins KinaseProfiler
The experiment in a line: KinaseProfiler enzyme profiling. It counts as biochemical. As to the method:
as §1

The target of the next data set is T20, CaMKIV(h) (Homo sapiens, UniProt Q16566).
T20 construct: purchased Eurofins KinaseProfiler
The data set is described as follows: KinaseProfiler enzyme profiling. Format: biochemical. How it is done: as §1

Another data set deals with T21, EGFR(L861Q)(h) (Homo sapiens, UniProt P00533, L861Q).
T21 construct: purchased Eurofins KinaseProfiler
The data set is described as follows: KinaseProfiler enzyme profiling. It counts as biochemical. How it is done: as §1

In another data set the target is T22, EphB4(h) (Homo sapiens, UniProt P54760).
T22 construct: purchased Eurofins KinaseProfiler
The data set is described as follows: KinaseProfiler enzyme profiling. Format: biochemical. As to the method:
as §1

The test system of another data set is CK1(y). The data set is described as follows: KinaseProfiler enzyme profiling. It counts as biochemical, yeast. The conditions noted are these: 10 µM. An excerpt: Enzyme profiling services were provided by KinaseProfiler™ (Eurofin, Brussels, Belgium). […] For more details, refer to the manufacturer’s instructions (www.eurofinsdiscoveryservices.com).
The target of the next data set is T23, CRAF (306-end) (Homo sapiens, UniProt P04049).
T23 construct: purchased
The data set is described as follows: SPR. It counts as binding. The conditions noted are these: CM5 chip, Biacore T200, read-out: equilibrium dissociation constant (KD). How it is done:
(§2) 293 T cells were transfected with plasmids of pcDNA3.1-3×Flag-C-MAP2K1/MAP2K1 (K97A, M146A), MAP2K2/MAP2K1 (K101A, M150A), or CRAF/CRAF (K375A). […]
(§3) After incubation, a series concentration of erianin (RAF inhibitor LY3009120 and MEK inhibitor cobimetinib were simultaneously added as positive control) flowed through the protein-CM5 system. The binding was tested and analyzed using Biacore T200 instrument.

For another data set, the target named is MEK1 full length (Homo sapiens, UniProt Q02750). The experiment in a line: SPR. Format: binding. To be noted: CM5 chip, Biacore T200, read-out: equilibrium dissociation constant (KD). How it is done: as §2, §3
For another data set, the target named is MEK2 full length (Homo sapiens, UniProt P36507). The data set is described as follows: SPR. Format: binding. To be noted: CM5 chip, Biacore T200, read-out: equilibrium dissociation constant (KD). As to the method: as §2, §3
In another data set the target is T24, CRAF (Homo sapiens, UniProt P04049).
T24 construct: endogenous in cells; host or cells: A375
The experiment in a line: Erianin-conjugated Sepharose 4B bead pull-down assay. Format: binding. The conditions noted are these: in vitro and ex vivo (A375 cell lysate). As to the method:
as §2
Cell lysate (500 μg) or recombinant proteins (200 ng) were incubated with erianin-CNBr activated sepharose 4B overnight at 4 °C, and the protein-beads complex was washed four times by the use of rotational incubator to remove non-specific binding. Western blotting was developed to check the pull-down bands.

For data set [1], the system named is normal human dermal fibroblasts (NHDF). The data set is described as follows: Cytotoxicity MTT assay. Format: cell-based. To be noted: 0, 12.5, 25, 50 nM. How it is done:
(§4) The synergism and antagonism (CI value) were determined and analyzed using CompuSyn 1.0.
(§5) For cytotoxicity test, normal NHDF (5000 cells/well) and NHEM cell line (3000 cells/well) were planted into 96-well plates. For cell proliferation assay, A375 (1500 cells/well), SK-MEL-28 (3000 cells/well), SK-MEL-2 (4000 cells/well), and HCT116 (1500 cells/well) were planted into 96-well plates, determined concentration of drug was added after culture for 24 h. The viability of the cells was detected within 72 h using MTT solution (5 mg/mL). The absorbance at 570/490 nm was quantified by the use of the microplate reader.

Data set [2] concerns normal human epidermal melanocytes (NHEM). The data set is described as follows: Cytotoxicity MTT assay. It counts as cell-based. The conditions noted are these: 0, 12.5, 25, 50 nM. How it is done:
as §4, §5

The test system of data set [3] is SK-MEL-2, A375, SK-MEL-28, and HCT 116 cells. The experiment in a line: MTT growth assay at 24, 48, or 72 h. It counts as cell-based, human. To be noted: both BRAF and RAS mutant cell lines. How it is done:
as §4, §5

MEK1 full length, sequence (Q02750 whole entry): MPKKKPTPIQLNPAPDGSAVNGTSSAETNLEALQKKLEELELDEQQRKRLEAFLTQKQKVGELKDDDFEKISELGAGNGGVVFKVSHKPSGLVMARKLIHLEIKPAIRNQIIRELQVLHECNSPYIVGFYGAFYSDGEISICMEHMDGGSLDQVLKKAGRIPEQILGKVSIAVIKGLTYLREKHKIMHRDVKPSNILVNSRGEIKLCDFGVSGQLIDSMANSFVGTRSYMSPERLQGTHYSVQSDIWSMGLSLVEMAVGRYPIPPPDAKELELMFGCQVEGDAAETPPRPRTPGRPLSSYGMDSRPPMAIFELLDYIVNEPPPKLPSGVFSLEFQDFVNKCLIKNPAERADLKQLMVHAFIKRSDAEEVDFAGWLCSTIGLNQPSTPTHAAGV
T14 sequence (O15530 whole entry): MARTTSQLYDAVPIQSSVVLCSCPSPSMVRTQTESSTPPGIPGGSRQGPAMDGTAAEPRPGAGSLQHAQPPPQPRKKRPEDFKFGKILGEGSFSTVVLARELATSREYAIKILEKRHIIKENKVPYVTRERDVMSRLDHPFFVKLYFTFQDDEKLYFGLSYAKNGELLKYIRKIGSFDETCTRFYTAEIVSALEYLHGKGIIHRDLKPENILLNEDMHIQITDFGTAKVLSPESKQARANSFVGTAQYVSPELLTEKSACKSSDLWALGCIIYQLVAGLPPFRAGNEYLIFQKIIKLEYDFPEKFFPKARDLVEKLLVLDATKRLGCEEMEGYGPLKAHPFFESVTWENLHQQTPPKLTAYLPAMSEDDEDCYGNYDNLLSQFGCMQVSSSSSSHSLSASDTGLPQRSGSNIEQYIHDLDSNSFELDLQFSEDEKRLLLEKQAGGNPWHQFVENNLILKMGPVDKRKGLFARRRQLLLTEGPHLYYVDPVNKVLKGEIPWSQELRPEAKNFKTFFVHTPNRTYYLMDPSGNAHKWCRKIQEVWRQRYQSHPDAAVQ
T2 sequence (Q13315 whole entry): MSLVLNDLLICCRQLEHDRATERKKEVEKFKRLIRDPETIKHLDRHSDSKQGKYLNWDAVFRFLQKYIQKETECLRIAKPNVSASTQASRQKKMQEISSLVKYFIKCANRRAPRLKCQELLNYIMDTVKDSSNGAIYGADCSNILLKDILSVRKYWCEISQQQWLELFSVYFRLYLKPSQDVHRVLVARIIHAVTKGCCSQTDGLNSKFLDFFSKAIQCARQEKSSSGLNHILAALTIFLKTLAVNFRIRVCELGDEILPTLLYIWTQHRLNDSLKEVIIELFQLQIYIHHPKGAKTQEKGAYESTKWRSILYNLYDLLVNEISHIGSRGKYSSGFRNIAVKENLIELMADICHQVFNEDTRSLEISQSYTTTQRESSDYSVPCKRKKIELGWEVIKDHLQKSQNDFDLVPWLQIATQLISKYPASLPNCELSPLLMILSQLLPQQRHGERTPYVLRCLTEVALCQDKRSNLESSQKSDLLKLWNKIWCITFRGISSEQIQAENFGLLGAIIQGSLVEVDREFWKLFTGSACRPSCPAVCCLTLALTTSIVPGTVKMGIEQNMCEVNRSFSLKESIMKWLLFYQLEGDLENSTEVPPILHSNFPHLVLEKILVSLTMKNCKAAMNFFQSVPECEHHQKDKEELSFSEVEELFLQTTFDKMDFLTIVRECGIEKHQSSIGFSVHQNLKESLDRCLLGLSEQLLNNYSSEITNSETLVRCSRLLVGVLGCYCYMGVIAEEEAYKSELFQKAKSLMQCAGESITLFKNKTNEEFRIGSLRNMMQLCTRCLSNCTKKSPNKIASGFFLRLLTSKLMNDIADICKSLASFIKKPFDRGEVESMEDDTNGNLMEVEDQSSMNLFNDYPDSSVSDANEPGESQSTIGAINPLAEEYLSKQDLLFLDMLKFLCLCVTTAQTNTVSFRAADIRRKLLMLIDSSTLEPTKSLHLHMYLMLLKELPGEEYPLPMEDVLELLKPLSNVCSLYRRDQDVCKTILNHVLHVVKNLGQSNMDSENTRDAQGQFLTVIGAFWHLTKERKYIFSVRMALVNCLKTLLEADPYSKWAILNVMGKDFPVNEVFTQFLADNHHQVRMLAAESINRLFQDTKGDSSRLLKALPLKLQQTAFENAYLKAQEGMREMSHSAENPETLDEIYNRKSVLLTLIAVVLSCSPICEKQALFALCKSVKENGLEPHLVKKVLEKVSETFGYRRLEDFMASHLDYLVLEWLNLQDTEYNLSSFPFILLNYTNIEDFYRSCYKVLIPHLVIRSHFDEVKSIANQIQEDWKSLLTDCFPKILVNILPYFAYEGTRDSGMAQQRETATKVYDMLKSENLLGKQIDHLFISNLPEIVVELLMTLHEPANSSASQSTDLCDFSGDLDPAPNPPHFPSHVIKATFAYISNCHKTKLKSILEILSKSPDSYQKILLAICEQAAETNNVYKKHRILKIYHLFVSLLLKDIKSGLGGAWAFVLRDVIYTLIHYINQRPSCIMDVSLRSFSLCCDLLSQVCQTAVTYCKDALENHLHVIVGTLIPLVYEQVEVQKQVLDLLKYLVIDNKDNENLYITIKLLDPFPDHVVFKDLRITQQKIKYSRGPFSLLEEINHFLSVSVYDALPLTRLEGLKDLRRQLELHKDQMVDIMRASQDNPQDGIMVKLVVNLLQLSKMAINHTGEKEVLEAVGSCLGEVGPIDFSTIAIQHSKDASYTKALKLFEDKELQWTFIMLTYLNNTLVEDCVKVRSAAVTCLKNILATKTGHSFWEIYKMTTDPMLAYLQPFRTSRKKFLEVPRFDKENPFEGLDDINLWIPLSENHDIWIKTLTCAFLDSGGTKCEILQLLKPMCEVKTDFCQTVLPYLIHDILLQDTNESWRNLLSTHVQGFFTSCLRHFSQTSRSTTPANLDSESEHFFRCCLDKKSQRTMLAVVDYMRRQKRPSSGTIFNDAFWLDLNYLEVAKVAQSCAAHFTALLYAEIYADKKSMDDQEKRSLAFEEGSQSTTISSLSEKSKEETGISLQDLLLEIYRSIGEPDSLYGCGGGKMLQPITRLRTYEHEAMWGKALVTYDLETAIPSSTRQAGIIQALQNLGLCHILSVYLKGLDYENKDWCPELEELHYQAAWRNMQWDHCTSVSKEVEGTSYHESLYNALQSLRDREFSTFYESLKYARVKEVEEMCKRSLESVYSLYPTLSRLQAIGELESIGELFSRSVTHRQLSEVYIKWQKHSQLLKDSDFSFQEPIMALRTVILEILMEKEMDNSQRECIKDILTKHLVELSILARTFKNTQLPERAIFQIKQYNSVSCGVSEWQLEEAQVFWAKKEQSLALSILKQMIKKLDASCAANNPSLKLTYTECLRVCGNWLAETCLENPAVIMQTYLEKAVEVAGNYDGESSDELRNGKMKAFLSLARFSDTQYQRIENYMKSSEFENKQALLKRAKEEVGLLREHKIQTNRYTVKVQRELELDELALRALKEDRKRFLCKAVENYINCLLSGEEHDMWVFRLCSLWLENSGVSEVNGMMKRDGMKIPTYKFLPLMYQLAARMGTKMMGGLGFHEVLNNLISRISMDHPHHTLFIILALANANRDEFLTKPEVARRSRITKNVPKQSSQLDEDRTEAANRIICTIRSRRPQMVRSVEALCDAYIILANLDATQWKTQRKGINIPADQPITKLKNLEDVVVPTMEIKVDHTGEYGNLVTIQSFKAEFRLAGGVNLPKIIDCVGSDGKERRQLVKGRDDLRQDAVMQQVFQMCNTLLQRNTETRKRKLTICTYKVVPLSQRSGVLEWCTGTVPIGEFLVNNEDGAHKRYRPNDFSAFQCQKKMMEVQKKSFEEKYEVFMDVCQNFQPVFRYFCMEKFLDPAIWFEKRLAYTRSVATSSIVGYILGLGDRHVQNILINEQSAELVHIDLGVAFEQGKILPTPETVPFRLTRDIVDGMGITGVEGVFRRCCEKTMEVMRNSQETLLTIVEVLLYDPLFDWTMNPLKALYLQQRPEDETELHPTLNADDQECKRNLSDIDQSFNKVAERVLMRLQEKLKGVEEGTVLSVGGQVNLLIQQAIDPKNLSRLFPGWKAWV
T3 sequence (P06493 whole entry): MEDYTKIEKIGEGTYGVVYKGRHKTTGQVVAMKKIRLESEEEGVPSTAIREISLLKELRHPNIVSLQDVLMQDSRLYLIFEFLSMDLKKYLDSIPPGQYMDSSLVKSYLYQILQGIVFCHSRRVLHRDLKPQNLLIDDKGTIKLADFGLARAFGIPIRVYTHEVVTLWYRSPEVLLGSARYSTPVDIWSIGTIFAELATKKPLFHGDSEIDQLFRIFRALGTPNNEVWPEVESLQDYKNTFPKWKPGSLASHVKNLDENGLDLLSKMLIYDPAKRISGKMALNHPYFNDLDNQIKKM
T3 sequence (P14635 whole entry partner): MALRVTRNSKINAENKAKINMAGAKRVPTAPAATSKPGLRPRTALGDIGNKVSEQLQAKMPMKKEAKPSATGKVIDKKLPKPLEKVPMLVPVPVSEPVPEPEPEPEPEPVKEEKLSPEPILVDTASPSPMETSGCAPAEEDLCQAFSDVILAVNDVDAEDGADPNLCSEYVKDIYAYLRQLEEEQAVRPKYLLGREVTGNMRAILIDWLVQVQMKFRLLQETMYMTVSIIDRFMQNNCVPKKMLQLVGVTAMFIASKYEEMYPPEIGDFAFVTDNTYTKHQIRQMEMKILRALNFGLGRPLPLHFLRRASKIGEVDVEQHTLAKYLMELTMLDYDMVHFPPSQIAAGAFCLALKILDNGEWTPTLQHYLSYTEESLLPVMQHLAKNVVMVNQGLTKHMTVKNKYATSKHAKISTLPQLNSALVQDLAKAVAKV
T19 sequence (P15056 416-766 V600E limits assumed): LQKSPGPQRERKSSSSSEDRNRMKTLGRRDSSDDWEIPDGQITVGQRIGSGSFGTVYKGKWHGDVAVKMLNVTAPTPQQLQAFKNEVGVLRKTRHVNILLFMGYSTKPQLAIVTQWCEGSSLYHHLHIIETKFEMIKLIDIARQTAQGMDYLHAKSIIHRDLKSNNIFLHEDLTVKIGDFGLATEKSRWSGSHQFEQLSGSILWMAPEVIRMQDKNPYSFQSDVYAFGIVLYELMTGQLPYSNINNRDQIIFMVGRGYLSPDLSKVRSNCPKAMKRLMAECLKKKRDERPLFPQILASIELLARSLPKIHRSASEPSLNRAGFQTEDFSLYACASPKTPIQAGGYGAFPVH

Regarding `C=C1C(=O)[C@]23[C@H](O)[C@H]1CC[C@H]2[C@@]12CO[C@]3(O)[C@@H](O)[C@@H]1C(C)(C)CC[C@@H]2O` [Oridonin], the activity at 10 µM on AMPKα1(h) (10 µM) was found to be 75%; at ATM(h) (10 µM), 71%; on CDK1/cyclinB(h), 63%; on CDK4/cyclinD3(h) (10 µM) it was 109%; at IKKβ(h) (10 µM), 105%; at JAK3(h) (10 µM), 89%. The activity at 10 µM on JNK2α2(h) (10 µM) amounted to 115%; on MSK1(h), 93%; at MSK2(h) it was 69%; on MST3(h), 74%; on NEK2(h), 90%; on PAK3(h) (10 µM), 95%. The activity at 10 µM at PDGFRα(h) (10 µM) is 71%; on PDK1(h), 69%; on PKA(h) it was 108%; on PKBβ(h) (10 µM), 106%; at PKCα(h) (10 µM) it was 69%; at mTOR(h) (10 µM) it was 81%.
For the compound `COc1cc2oc(-c3ccc(O)c(O)c3)cc(=O)c2c(O)c1OC` [Cirsiliol], the activity at 10 µM was determined as 106% at B-Raf(V599E)(h) (10 µM); 97% on CDK1/cyclinB(h); 93% at CaMKIV(h) (10 µM); 108% at EGFR(L861Q)(h) (10 µM); 86% at EphB4(h) (10 µM); 106% on MSK1(h). Also, the activity at 10 µM on MSK2(h) came to 108%; at MST3(h), 103%; at NEK2(h), 105%; on PDK1(h), 107%; at PKA(h) it was 100%. The Activity % in the data set with CK1(y) was 95%.
`COc1ccc(CCc2cc(OC)c(OC)c(OC)c2)cc1O` [Erianin]: the activity at 0.1 µM at AMPKα1(h) was found to be 108%; on ATM(h), 111%; on B-Raf(V599E)(h), 109%; on CDK4/cyclinD3(h) it was 105%; at CaMKIV(h), 91%; on EGFR(L861Q)(h), 93%. Also, the activity at 0.1 µM at EphB4(h) was 108%; on IKKβ(h), 95%; at JAK3(h), 98%; on JNK2α2(h), 91%; on PAK3(h), 99%; at PDGFRα(h) it was 91%. In addition, the activity at 0.1 µM at PKBβ(h) worked out at 97%; on PKCα(h), 89%; on mTOR(h), 104%. For the same compound, the equilibrium dissociation constant (Kd) on CRAF (306-end) is 89.6 µM and 89.7 µM; on MEK1 full length it was 68.5 µM; at MEK2 full length, 115 µM. In addition, the binding in pull-down result on CRAF is on record as “directly bound”. The cytotoxicity result in data set [1] and in [2] was “no toxicity” in each case. Moreover, the proliferation result in [3] is “markedly suppress”.
